The target in assay [1] is T1, AmaEcR (GAL4-EcR DEF with VP16-RXR-USP chimera) (Amblyomma americanum, UniProt O44338).
T1 sequence (O44338 255-570): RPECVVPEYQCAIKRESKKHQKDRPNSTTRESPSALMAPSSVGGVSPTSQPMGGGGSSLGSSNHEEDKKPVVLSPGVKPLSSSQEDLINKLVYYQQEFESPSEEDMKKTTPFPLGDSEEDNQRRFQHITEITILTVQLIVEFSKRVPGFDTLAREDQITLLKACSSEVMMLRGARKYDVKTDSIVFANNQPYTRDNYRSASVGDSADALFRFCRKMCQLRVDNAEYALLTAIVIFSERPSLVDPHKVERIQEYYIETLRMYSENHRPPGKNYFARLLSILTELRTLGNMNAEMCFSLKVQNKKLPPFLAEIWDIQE
T1 sequence (P28702 1-533 partner): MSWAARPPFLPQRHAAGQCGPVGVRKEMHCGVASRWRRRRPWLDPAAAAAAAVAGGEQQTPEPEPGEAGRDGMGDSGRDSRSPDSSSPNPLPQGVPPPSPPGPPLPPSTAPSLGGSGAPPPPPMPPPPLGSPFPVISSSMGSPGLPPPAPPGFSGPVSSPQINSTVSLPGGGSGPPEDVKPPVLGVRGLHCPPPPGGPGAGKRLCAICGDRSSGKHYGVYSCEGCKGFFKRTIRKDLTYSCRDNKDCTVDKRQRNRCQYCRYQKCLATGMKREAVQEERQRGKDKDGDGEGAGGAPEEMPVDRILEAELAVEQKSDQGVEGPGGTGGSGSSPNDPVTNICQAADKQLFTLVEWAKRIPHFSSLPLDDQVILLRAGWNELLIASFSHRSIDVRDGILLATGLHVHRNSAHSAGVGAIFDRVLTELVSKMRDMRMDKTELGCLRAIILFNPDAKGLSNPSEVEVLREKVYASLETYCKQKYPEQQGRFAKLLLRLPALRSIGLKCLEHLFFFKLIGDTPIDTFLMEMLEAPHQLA
The assay is described as follows: Two-hybrid gene switch assay, luciferase reporter, AmaEcR, mouse NIH3T3 cells. The conditions noted are these: EC50, FIG. 14A/14B, GAL4-EcR(DEF) with VP16-RXR-USP chimera.

For assay [2], the target named is BmEcR (GAL4-EcR DEF with VP16-RXR-USP chimera) (Bombyx mori, UniProt P49881). The assay is described as follows: Two-hybrid gene switch assay, luciferase reporter, BmEcR, mouse NIH3T3 cells. Format: cell-based.
Assay [3] has as its target T2, MsEcR (GAL4-EcR DEF with VP16-RXR-USP chimera) (Manduca sexta, UniProt P49883).
T2 sequence (P49883 1-556): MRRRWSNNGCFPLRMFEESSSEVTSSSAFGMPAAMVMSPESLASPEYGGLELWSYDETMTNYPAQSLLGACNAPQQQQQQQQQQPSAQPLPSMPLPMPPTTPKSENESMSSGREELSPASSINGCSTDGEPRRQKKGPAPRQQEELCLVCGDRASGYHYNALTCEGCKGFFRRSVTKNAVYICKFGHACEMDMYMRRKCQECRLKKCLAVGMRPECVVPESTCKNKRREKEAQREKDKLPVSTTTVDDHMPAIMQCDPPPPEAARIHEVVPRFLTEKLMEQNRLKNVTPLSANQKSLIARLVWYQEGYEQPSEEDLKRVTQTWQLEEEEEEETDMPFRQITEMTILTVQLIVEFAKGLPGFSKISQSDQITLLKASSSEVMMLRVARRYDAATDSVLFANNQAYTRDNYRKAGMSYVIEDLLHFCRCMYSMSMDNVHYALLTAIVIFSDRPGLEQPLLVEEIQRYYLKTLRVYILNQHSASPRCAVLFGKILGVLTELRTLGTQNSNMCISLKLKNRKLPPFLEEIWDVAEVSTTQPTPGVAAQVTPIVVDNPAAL
T2 sequence (P28702 1-533 partner): T1 sequence (P28702 1-533 partner)
As to the kind of experiment: Two-hybrid gene switch assay, luciferase reporter, MsEcR, mouse NIH3T3 cells. The conditions noted are these: EC50, FIG. 13A/13B, GAL4-EcR(DEF) with VP16-RXR-USP chimera.

In assay [4] the test system is NcEcR (GAL4-EcR DEF with VP16-RXR partner). As to the kind of experiment: Two-hybrid gene switch assay, luciferase reporter, NcEcR, mouse NIH3T3 cells. The conditions noted are these: FIG. 14A/14B, GAL4-EcR(DEF).
In assay [5] the target is T3, wild-type CfEcR (GAL4-CfEcR-DEF with VP16-RXR-USP chimera) (Choristoneura fumiferana, UniProt O77255).
T3 sequence (O77255 219-541): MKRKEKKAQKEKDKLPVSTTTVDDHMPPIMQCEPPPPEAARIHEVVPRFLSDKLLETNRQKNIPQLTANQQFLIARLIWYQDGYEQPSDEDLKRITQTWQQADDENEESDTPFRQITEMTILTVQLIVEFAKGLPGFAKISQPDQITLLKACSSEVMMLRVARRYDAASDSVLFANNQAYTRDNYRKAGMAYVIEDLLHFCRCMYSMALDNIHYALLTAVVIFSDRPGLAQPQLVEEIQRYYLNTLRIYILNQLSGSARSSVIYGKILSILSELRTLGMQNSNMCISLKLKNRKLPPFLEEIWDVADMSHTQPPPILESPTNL
T3 sequence (P28702 1-533 partner): T1 sequence (P28702 1-533 partner)
The assay is described as follows: Two-hybrid gene switch assay, luciferase reporter, wild-type CfEcR, mouse NIH3T3 cells.

Assay [6] has as its target wild-type Aedes aegypti EcR (AaEcR; GAL4-EcR DEF with VP16-RXR-USP chimera) (Aedes aegypti, UniProt P49880). The assay is described as follows: Two-hybrid gene switch assay, luciferase reporter, wild-type AaEcR, mouse NIH3T3 cells. The format is cell-based. The conditions noted are these: GAL4-EcR(DEF) with VP16-RXR-USP chimera. A general note: A reporter such as luciferase makes a cellular process visible.

The target in assay [7] is T4, BaEcR (GAL4-EcR DEF with VP16-RXR-USP chimera) (Bemisia tabaci, UniProt A0A6M3RDR8).
T4 sequence (A0A6M3RDR8 115-530): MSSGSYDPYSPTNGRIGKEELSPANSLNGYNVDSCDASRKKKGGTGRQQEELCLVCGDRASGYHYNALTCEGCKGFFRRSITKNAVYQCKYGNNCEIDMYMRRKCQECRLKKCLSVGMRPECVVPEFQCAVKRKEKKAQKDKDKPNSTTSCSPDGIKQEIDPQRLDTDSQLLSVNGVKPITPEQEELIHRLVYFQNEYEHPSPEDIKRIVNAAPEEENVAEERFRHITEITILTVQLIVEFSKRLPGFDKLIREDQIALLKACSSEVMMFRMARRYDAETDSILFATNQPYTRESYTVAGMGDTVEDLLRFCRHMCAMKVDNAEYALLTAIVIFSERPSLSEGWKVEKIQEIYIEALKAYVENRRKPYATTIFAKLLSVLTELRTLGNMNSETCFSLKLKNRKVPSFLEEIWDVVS
T4 sequence (P28702 1-533 partner): T1 sequence (P28702 1-533 partner)
The assay is described as follows: Two-hybrid gene switch assay, luciferase reporter, BaEcR, mouse NIH3T3 cells. The conditions noted are these: EC50, FIG. 14A/14B, GAL4-EcR(DEF) with VP16-RXR-USP chimera.

Molecules are shown by their SMILES. Like-named read-outs stand apart in the source and are kept apart here.

BmEcR (GAL4-EcR DEF with VP16-RXR-USP chimera), sequence (P49881 other isoform, or with tags, fused parts or gaps, change not shown): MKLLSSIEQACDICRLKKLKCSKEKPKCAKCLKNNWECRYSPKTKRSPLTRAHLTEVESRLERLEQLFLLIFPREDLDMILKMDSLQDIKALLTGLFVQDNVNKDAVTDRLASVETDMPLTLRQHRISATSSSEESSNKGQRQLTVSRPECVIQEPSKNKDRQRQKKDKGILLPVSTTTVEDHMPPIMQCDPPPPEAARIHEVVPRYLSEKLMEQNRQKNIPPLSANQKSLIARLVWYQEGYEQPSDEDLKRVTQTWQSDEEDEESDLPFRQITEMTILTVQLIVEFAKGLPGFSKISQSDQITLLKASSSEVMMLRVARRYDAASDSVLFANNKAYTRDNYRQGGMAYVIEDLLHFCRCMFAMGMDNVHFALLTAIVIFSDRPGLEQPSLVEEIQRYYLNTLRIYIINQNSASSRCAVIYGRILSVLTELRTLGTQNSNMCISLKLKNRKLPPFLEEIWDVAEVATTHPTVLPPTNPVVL
wild-type Aedes aegypti EcR (AaEcR; GAL4-EcR DEF with VP16-RXR-USP chimera), sequence (P49880 with tags, fused parts or gaps limits assumed, change not shown): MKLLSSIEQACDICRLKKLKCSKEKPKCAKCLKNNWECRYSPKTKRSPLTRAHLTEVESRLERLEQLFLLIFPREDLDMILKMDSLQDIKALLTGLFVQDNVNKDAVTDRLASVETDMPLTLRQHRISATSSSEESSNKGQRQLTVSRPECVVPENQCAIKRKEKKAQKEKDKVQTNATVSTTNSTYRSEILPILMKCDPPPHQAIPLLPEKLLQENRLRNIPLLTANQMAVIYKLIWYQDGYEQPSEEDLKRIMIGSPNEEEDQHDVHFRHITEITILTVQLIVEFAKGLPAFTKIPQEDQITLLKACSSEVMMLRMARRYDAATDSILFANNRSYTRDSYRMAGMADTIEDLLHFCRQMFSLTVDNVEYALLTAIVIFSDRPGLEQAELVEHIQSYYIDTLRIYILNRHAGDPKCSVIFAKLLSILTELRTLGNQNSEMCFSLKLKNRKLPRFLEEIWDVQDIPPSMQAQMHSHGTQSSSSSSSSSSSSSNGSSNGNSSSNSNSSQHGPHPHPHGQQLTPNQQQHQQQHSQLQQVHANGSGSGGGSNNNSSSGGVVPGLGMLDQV

Consider `CCCCCC(=O)OC1CC2(C)C(C(C)(O)C(O)CCC(C)(C)O)CCC2(O)C2=CC(=O)C3CC(O)C(O)CC3(C)C21` (centres unmarked) [turkesterone-11 a -hexanoate], for which the EC50 was roughly 10 µM in assay [1]; greater than 33 µM in assay [2] (EC50, FIG. 13A/13B, BmEcR, GAL4-EcR(DEF) with VP16-RXR-USP chimera); greater than 33 µM in assay [3]; roughly 7000 nM in assay [4]; greater than 33 µM in assay [5]; roughly 12 µM in assay [6] (EC50, FIG. 14A/14B). In assay [7], this compound came in with an EC50 greater than 33 µM.

As for `CC(=O)O[C@H](CCC(C)(C)O)[C@](C)(O)[C@H]1CC[C@@]2(O)C3=CC(=O)[C@@H]4C[C@@H](O)[C@@H](O)C[C@]4(C)[C@H]3CC[C@]12C` [Compound 20-hydroxyecdysone-22-acetate], the EC50 in assay [1] is roughly 2 µM; in assay [2] (read-out: EC50) it was greater than 33 µM; in assay [3], roughly 2 µM; in assay [4], 2440 nM; in assay [5] it was greater than 33 µM; in assay [6] (FIG. 14A/14B, read-out: EC50), roughly 2 µM. In assay [7], this compound showed an EC50 of roughly 2 µM.

For `CC(C)(O)CCC(=O)[C@](C)(O)[C@H]1CC[C@@]2(O)C3=CC(=O)[C@@H]4C[C@@H](O)[C@@H](O)C[C@]4(C)[C@H]3CC[C@]12C` [Compound 22-dehydro-20-hydroxyecdysone], the concentration for a half-maximal effect (EC50) is roughly 7 µM in assay [1]; greater than 33 µM in assay [2]; 10.3 µM in assay [3]; 1840 nM in assay [4]; greater than 33 µM in assay [5]; roughly 2 µM in assay [6] (FIG. 14A/14B, read-out: EC50). The compound also displayed an EC50 in assay [7] of roughly 12 µM.

Turning to `CC(C)(O)CC[C@@H](O)[C@](C)(O)[C@H]1CC[C@@]2(O)C3=CC(=O)[C@@H]4C[C@@H](O)[C@@H](O)C[C@]4(C)C3=CC[C@]12C` [Compound 25-hydroxydacryhainansterone], the EC50 in assay [1] is roughly 3.3 µM; in assay [2], greater than 33 µM; in assay [3], roughly 10 µM; in assay [4], 1260 nM; in assay [5], greater than 33 µM; in assay [6] (FIG. 14A/14B, read-out: EC50), roughly 5 µM. The compound also had an EC50 in assay [7] of roughly 15 µM.

`CC(C)(O)CC[C@@H](OC(=O)c1ccc[nH]1)[C@](C)(O)[C@H]1CC[C@@]2(O)C3=CC(=O)[C@@H]4C[C@@H](O)[C@@H](O)C[C@]4(C)[C@H]3CC[C@]12C`: the EC50 in assay [1] was roughly 5 µM; in assay [2] it was greater than 33 µM; in assay [3], greater than 33 µM; in assay [4] it was roughly 5000 nM; in assay [5], greater than 33 µM; in assay [6] (FIG. 14A/14B, read-out: EC50) it was roughly 10 µM. This compound also yielded a concentration for a half-maximal effect (EC50) in assay [7] of roughly 15 µM.

One may read the EC50 as the midpoint of the concentration-response curve.

The values are drawn from US8536354B2, “Steroidal ligands and their use in gene switch modulation” (Intrexon Corporation, priority 2008, dated 2013).
